From the supplement of paper PMC12076712

How the values were obtained:
Experiment in all cases: pIC50, kinobeads binding competition
TEC = target: T1, TEC (UniProt P42680)
T1 sequence (whole entry): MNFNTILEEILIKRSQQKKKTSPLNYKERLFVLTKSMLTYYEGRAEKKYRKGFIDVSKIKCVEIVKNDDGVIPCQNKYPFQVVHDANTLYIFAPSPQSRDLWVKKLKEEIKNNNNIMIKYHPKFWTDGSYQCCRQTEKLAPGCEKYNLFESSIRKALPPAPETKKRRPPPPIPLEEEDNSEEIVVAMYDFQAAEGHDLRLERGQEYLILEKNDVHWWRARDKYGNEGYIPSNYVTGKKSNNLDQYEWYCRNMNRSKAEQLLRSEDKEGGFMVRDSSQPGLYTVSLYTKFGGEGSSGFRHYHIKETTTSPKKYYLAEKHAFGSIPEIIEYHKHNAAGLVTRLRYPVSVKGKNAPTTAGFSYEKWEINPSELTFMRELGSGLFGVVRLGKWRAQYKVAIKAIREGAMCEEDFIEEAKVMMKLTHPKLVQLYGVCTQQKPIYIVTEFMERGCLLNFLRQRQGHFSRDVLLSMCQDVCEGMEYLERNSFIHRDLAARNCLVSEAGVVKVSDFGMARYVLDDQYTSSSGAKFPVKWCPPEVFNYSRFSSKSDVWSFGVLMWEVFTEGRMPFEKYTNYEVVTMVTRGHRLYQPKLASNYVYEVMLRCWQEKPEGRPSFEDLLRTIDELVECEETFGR
Summary of the method: (§1)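 pIC50 was obtained by fitting fold changes against vehicle to logistic dose-response curves with the R drc package, using biological duplicates. Kinobeads-bound proteins were digested and measured by TMT10 LC-MS/MS. Before this, either living Jurkat cells received nine compound concentrations (top 30 μM, 1:4 steps) for 60 min at 37 °C prior to lysis, or Jurkat lysate or a 1:1:1:1 HEK293/K-562/HepG2/placenta lysate mix received nine concentrations (top 30 μM, 1:5 steps) for 60 min at 4 °C.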

ULK3 = target: T2, ULK3 (UniProt Q6PHR2)
T2 sequence (whole entry): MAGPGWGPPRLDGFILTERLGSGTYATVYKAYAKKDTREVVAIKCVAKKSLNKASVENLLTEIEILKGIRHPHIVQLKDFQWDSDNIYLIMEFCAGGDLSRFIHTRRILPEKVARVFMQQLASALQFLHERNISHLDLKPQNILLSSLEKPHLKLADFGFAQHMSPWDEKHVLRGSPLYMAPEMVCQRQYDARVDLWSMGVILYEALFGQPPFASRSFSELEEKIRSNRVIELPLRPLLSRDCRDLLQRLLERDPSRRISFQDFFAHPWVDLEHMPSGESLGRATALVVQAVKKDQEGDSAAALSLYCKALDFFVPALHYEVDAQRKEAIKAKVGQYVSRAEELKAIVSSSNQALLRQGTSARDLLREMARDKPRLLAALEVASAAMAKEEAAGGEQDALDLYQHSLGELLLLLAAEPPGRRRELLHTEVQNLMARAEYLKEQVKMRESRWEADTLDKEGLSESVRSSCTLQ
Summary of the method: as §1

DYRK1B = DYRK1B (UniProt Q9Y463)
Summary of the method: as §1

UniProt Q15139 = target: T3, UniProt Q15139; conditions: cell material: Lysate mix
T3 sequence (whole entry): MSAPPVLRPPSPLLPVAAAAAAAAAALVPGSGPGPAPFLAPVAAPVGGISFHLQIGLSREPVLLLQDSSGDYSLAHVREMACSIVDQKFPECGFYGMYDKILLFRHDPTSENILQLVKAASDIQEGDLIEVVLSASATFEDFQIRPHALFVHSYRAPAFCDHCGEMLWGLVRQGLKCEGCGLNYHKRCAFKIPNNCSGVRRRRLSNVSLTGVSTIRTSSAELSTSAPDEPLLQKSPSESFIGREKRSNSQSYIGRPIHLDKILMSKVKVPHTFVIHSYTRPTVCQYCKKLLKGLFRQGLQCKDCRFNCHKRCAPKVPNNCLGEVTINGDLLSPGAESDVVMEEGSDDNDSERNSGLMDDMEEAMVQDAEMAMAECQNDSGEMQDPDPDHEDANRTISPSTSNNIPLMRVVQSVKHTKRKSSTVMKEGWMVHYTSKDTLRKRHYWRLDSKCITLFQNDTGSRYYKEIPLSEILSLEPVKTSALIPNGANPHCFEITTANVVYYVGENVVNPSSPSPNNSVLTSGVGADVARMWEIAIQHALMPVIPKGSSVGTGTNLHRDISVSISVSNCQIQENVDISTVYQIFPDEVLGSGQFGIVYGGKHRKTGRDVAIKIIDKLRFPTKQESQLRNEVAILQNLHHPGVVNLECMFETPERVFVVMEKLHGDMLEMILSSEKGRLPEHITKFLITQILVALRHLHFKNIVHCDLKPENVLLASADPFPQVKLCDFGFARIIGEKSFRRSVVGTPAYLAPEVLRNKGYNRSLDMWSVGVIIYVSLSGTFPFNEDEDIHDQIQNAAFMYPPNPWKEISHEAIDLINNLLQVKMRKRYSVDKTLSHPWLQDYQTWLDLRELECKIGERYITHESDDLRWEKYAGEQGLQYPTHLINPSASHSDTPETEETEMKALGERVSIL
Summary of the method: as §1

PHKG2 = target: T4, PHKG2 (UniProt P15735)
T4 sequence (whole entry): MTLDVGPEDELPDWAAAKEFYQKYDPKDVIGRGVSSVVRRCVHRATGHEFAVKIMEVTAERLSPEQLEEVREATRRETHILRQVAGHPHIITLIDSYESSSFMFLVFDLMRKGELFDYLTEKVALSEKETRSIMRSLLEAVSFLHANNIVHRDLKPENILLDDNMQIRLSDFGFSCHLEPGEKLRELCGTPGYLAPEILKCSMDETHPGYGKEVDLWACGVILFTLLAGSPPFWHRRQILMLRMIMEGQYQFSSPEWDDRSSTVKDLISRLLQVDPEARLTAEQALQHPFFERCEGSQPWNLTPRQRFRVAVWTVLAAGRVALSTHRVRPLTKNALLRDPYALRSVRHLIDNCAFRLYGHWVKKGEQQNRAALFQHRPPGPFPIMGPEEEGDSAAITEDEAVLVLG
Summary of the method: as §1

MAP4K4 = MAP4K4 (UniProt O95819)
Summary of the method: as §1

MELK = MELK (UniProt Q14680)
Summary of the method: as §1

INSR = INSR (UniProt P06213)
Summary of the method: as §1

UniProt P68400 = target: UniProt P68400
Summary of the method: as §1

UniProt Q13164 = target: UniProt Q13164
Summary of the method: as §1

UniProt P68400, sequence (P68400 whole entry, looked up): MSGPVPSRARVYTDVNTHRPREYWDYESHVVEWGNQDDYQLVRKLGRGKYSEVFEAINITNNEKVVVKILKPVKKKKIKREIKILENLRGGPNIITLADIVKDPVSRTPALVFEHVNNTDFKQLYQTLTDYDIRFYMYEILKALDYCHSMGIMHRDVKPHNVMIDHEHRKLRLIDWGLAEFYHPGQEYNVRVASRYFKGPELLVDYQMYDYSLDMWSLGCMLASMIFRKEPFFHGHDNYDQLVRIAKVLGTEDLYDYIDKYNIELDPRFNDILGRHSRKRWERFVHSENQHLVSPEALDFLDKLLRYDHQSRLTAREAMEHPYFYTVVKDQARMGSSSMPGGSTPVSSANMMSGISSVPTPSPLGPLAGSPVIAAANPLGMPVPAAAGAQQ
UniProt Q13164, sequence (Q13164 whole entry, looked up): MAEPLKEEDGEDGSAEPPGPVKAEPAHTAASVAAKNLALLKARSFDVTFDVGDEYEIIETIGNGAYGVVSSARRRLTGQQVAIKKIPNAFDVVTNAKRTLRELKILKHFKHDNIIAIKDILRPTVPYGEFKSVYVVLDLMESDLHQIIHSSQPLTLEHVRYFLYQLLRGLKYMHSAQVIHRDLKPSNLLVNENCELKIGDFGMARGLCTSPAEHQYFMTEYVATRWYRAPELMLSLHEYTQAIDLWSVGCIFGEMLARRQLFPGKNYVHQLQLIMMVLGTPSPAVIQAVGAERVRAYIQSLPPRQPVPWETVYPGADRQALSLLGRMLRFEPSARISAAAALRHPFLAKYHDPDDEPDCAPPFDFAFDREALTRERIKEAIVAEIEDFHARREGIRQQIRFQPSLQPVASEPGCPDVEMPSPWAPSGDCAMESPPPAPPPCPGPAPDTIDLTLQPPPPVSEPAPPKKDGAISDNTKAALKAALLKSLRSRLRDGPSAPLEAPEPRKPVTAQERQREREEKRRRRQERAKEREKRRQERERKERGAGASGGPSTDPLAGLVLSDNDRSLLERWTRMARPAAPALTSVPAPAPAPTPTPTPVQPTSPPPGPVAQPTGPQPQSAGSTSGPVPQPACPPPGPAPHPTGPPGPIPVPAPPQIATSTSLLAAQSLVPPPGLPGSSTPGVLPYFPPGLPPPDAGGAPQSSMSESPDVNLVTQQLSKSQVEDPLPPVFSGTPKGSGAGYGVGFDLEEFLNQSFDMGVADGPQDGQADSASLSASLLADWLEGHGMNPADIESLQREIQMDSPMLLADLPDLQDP
MAP4K4, sequence (O95819 whole entry, looked up): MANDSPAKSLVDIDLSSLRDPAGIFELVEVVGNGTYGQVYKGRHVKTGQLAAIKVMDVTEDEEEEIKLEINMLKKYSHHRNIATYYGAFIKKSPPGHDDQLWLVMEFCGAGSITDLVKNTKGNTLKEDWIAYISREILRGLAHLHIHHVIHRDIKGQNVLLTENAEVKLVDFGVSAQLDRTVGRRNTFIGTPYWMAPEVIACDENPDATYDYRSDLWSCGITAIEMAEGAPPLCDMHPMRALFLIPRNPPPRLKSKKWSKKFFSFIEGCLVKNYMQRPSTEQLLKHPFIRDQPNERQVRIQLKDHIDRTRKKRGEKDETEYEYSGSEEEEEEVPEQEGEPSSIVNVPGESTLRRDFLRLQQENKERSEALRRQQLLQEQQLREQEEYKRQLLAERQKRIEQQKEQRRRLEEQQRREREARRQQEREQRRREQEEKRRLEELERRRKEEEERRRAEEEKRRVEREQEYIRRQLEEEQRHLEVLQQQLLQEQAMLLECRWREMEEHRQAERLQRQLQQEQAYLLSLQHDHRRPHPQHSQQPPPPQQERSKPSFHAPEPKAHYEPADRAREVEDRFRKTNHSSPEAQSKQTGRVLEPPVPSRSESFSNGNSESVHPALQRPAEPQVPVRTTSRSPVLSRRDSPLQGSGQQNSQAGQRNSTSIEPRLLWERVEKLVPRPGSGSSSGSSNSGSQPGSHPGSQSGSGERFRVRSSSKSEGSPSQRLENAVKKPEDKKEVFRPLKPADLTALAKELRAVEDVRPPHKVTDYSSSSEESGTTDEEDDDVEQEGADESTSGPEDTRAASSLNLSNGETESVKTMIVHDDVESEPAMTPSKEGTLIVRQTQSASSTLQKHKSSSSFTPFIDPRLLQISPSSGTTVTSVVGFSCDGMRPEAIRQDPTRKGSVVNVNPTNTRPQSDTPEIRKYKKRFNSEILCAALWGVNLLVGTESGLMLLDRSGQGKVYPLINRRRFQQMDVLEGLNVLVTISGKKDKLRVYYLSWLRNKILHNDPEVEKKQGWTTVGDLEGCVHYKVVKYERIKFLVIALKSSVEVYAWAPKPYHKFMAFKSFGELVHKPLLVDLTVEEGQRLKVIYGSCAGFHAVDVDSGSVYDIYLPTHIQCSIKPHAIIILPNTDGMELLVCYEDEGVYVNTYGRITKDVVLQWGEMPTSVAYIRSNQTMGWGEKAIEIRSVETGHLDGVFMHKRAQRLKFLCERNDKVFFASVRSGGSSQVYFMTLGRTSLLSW
INSR, sequence (P06213 whole entry): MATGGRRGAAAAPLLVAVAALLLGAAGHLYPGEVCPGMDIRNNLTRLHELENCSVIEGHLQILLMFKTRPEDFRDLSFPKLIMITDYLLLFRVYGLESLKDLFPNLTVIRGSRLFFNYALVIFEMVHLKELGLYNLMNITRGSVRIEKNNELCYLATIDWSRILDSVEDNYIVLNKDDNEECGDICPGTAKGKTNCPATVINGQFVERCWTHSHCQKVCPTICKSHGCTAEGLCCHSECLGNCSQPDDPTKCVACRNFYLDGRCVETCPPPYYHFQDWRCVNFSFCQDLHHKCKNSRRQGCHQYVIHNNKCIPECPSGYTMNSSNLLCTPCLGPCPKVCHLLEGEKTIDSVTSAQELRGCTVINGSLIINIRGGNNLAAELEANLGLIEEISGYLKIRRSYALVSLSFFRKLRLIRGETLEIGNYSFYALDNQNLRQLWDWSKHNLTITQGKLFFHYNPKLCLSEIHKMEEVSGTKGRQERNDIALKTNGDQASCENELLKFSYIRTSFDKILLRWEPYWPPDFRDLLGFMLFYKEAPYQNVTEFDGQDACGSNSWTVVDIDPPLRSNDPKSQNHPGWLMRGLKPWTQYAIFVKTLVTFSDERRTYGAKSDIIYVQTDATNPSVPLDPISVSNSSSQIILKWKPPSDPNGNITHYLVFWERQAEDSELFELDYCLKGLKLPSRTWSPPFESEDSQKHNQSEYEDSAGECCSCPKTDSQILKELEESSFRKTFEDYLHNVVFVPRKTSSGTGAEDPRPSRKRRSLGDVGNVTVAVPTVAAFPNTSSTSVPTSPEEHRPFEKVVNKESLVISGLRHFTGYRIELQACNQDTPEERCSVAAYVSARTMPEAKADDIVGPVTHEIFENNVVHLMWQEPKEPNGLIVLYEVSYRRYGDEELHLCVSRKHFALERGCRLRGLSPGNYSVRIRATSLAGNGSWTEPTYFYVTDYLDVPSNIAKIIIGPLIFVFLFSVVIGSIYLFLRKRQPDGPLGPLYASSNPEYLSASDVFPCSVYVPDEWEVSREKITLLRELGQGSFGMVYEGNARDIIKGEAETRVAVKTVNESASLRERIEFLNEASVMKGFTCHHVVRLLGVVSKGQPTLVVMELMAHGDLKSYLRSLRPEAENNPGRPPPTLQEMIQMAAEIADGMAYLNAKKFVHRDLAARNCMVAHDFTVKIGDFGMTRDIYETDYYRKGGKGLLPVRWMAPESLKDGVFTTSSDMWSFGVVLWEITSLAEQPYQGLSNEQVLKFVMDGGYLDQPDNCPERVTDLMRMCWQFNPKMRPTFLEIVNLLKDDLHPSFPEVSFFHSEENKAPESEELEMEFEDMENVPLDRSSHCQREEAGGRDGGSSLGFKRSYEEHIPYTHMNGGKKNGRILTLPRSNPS
DYRK1B, sequence (Q9Y463 whole entry, looked up): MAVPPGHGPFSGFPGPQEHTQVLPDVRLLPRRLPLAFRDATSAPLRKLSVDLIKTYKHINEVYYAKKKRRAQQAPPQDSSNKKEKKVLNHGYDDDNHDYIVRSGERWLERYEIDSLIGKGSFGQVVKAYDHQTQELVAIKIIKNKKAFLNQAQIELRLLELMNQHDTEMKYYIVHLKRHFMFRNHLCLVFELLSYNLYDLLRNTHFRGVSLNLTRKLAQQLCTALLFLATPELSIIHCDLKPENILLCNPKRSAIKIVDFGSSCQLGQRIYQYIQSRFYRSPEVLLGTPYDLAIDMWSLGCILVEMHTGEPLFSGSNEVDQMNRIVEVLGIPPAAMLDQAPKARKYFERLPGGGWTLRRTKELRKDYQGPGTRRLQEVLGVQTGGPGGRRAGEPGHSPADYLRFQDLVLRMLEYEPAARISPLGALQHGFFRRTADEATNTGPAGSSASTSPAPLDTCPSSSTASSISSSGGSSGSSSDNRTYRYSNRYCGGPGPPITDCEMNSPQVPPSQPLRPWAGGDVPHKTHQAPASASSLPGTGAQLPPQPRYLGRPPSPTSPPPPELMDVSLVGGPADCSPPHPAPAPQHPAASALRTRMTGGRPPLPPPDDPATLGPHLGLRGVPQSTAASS

pIC50 (TEC; cell material: Lysate mix) | pIC50 (ULK3; cell material: Lysate mix) | pIC50 (DYRK1B; cell material: Lysate mix) | pIC50 (UniProt Q15139) | pIC50 (PHKG2; cell material: Lysate mix) | pIC50 (MAP4K4; cell material: Lysate mix) | pIC50 (MELK; cell material: Lysate mix) | pIC50 (INSR; cell material: Lysate mix) | pIC50 (UniProt P68400; cell material: Lysate mix) | pIC50 (UniProt Q13164; cell material: Lysate mix) | Compound | pIC50 (TEC; cell material: Jurkat cells) | pIC50 (TEC; cell material: Jurkat lysate) | pIC50 (ULK3; cell material: Jurkat cells) | pIC50 (ULK3; cell material: Jurkat lysate) | pIC50 (DYRK1B; cell material: Jurkat cells) | pIC50 (DYRK1B; cell material: Jurkat lysate) | pIC50 (PHKG2; cell material: Jurkat cells) | pIC50 (PHKG2; cell material: Jurkat lysate) | pIC50 (MAP4K4; cell material: Jurkat cells) | pIC50 (MAP4K4; cell material: Jurkat lysate) | pIC50 (MELK; cell material: Jurkat cells) | pIC50 (MELK; cell material: Jurkat lysate) | pIC50 (INSR; cell material: Jurkat cells) | pIC50 (INSR; cell material: Jurkat lysate) | pIC50 (UniProt P68400; cell material: Jurkat cells) | pIC50 (UniProt P68400; cell material: Jurkat lysate) | pIC50 (UniProt Q13164; cell material: Jurkat cells) | pIC50 (UniProt Q13164; cell material: Jurkat lysate)
< 4.52 |  | < 4.52 | < 4.52 | < 4.52 | < 4.52 | < 4.52 | < 4.52 | < 4.52 | < 4.52 | O=C(NCCNC(=O)c1cc(Nc2cc(C3CC3)[nH]n2)nc(N2CCN(Cc3ccc(S(=O)(=O)F)cc3)CC2)n1)OC1CC/C=C/CCC1 (stereo not drawn) | 4.8 | < 4.52 | 5.86 | < 4.52 | 4.8 | < 4.52 | < 4.52 | < 4.52 | 5.15 | < 4.52 | < 4.52 | < 4.52 | < 4.52 | < 4.52 |  | < 4.52 | 4.92 | < 4.52
< 4.52 | 6.27 | 5.08 | < 4.52 | < 4.52 | < 4.52 | < 4.52 | < 4.52 | 5.39 | 5.16 | CCNC(=O)c1cc(Nc2cc(C3CC3)[nH]n2)nc(N2CCN(Cc3ccc(S(=O)(=O)F)cc3)CC2)n1 |  |  |  |  |  |  |  |  |  |  |  |  |  |  |  |  |  | 
< 4.52 | < 4.52 | < 4.52 | < 4.52 | < 4.52 | < 4.52 | < 4.52 | < 4.52 | < 4.52 | < 4.52 | Cc1cc(Nc2cc(C(=O)NCCNC(=O)OC3CC/C=C/CCC3)nc(N3CCN(Cc4ccc(S(=O)(=O)F)cc4)CC3)n2)n[nH]1 (stereo not drawn) |  |  |  |  |  |  |  |  |  |  |  |  |  |  |  |  |  | 

The remaining lines, values behind:

Compound | pIC50 (TEC; cell material: Lysate mix) | pIC50 (ULK3; cell material: Lysate mix) | pIC50 (DYRK1B; cell material: Lysate mix) | pIC50 (UniProt Q15139) | pIC50 (PHKG2; cell material: Lysate mix) | pIC50 (MAP4K4; cell material: Lysate mix) | pIC50 (MELK; cell material: Lysate mix) | pIC50 (INSR; cell material: Lysate mix) | pIC50 (UniProt P68400; cell material: Lysate mix) | pIC50 (UniProt Q13164; cell material: Lysate mix) | pIC50 (TEC; cell material: Jurkat cells) | pIC50 (TEC; cell material: Jurkat lysate) | pIC50 (ULK3; cell material: Jurkat cells) | pIC50 (ULK3; cell material: Jurkat lysate) | pIC50 (DYRK1B; cell material: Jurkat cells) | pIC50 (DYRK1B; cell material: Jurkat lysate) | pIC50 (PHKG2; cell material: Jurkat cells) | pIC50 (PHKG2; cell material: Jurkat lysate) | pIC50 (MAP4K4; cell material: Jurkat cells) | pIC50 (MAP4K4; cell material: Jurkat lysate) | pIC50 (MELK; cell material: Jurkat cells) | pIC50 (MELK; cell material: Jurkat lysate) | pIC50 (INSR; cell material: Jurkat cells) | pIC50 (INSR; cell material: Jurkat lysate) | pIC50 (UniProt P68400; cell material: Jurkat cells) | pIC50 (UniProt P68400; cell material: Jurkat lysate) | pIC50 (UniProt Q13164; cell material: Jurkat cells) | pIC50 (UniProt Q13164; cell material: Jurkat lysate)
C#CCNC(=O)c1cc(Nc2cc(C)[nH]n2)nc(N2CCN(Cc3ccc(S(=O)(=O)F)cc3)CC2)n1 | < 4.52 | 5.49 | < 4.52 | < 4.52 | < 4.52 | < 4.52 | < 4.52 | < 4.52 | 4.89 | < 4.52 |  |  |  |  |  |  |  |  |  |  |  |  |  |  |  |  |  | 
C#CCNC(=O)c1cc(Nc2cc(C3CC3)[nH]n2)nc(N2CCN(Cc3ccc(S(=O)(=O)F)cc3)CC2)n1 | < 4.52 | 6.39 | < 4.52 | < 4.52 | < 4.52 |  | < 4.52 | < 4.52 | 5.02 | 5.14 | 5.88 | < 4.52 | 6.44 | 5.88 | 5.47 | < 4.52 | 5.16 | < 4.52 | 5.9 | < 4.52 | < 4.52 | < 4.52 | 4.82 | < 4.52 | 5.62 | < 4.52 | 5.69 | < 4.52
CCNC(=O)c1cc(Nc2cc(C)[nH]n2)nc(N2CCN(Cc3ccc(S(=O)(=O)F)cc3)CC2)n1 | < 4.52 | 5.63 | < 4.52 | < 4.52 | < 4.52 | < 4.52 | < 4.52 | < 4.52 | 5.15 | 4.6 |  |  |  |  |  |  |  |  |  |  |  |  |  |  |  |  |  | 
